Consider 38 compounds from patent US8143259B2, “Cold menthol receptor antagonists” (Janssen Pharmaceutica, NV, priority 2008, dated 2012).

SMILES strings stand for the structures.

For this assay, the target named is T1, canine TRPM8 (Canis lupus familiaris, UniProt Q1A7N1).
T1 construct: expressed in transfected cells
The assay is described as follows: In Vitro Canine TRPM8 Functional Assay (Ca2+ fluorescence, icilin activation). The note with it: for inhibition at 0.2 µM: HEK293, 0.2 μM compound; for inhibition at 0.2 µM / % Inh @ 0.2 μM: canine TRPM8 HEK293, icilin; for IC50: HEK293 cells stably expressing canine TRPM8, icilin activation, Ca2+ fluorescence; for % Inh @ 0.2 μM: 0.2 μM compound. The format is cell-based. The method in brief:
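Antagonism read as inhibition of the intracellular Ca2+ rise evoked by icilin (~EC80), measured by FLIPR or FDSS. Stable canine TRPM8 HEK293 line, Calcium 3 dye; 5 min compound preincubation. Normalised, basal-corrected peak fluorescence from quadruplicates fitted to sigmoidal curves.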

T1 sequence (Q1A7N1 1-1104): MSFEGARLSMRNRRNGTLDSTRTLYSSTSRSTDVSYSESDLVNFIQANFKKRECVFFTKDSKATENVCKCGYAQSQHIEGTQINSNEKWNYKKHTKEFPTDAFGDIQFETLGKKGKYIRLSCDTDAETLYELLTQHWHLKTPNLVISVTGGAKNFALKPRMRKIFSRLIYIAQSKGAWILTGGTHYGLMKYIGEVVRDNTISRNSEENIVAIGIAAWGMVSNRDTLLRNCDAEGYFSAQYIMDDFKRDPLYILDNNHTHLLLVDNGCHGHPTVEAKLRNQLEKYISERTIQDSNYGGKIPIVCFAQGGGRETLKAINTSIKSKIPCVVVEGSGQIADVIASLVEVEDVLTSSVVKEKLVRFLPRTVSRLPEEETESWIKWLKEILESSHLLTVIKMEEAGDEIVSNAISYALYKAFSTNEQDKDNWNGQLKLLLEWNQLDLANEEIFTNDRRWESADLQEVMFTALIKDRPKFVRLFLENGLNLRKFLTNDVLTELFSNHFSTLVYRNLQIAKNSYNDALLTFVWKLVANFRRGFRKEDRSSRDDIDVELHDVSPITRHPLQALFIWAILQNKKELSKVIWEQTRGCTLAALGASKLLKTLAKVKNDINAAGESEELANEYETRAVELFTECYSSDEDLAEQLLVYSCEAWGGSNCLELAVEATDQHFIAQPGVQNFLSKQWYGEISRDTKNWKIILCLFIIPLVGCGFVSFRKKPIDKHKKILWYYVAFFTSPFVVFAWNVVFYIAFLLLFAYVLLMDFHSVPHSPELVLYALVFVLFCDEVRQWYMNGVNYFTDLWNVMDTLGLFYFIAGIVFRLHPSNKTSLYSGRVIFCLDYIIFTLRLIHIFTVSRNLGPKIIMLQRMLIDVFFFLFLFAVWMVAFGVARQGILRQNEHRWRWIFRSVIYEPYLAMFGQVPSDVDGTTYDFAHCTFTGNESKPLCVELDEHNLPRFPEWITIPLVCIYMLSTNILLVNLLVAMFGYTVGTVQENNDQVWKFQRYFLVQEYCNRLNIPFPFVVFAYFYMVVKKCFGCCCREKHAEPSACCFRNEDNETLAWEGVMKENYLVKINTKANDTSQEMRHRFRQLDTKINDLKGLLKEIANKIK

Turning to `O=C(C(Nc1cc(F)ccc1F)c1ccc(Cl)cc1)N1CCCC1c1ccccc1F` (stereo not shown) [Cpd 170], the inhibition at 0.2 µM came to 100% and the IC50 amounted to 26.5 nM.

For the compound `O=C(C(Nc1cc(F)ccc1F)c1ccc(Cl)cc1)N1CCCC1c1ccccc1Cl` (stereo not shown) [Cpd 171], the inhibition at 0.2 µM came to 98% and half-maximal inhibition (IC50) was put at 41.8 nM. Turning to `COc1ccccc1C1CCCN1C(=O)C(Nc1cc(F)ccc1F)c1ccc(Cl)cc1` (stereo not shown) [Cpd 172], the inhibition at 0.2 µM amounted to 102% and the IC50 came out at 29.6 nM. For `O=C(C(Nc1cc(F)ccc1F)c1ccc(Cl)cc1)N1CCCC1c1ccccc1` (stereo not shown) [Cpd 173], the inhibition at 0.2 µM was 103% and it took 35.6 nM to reach half-maximal inhibition (IC50). The matching figures for `O=C(C(Nc1cc(F)ccc1F)c1ccc(Cl)cc1)N1Cc2ccccc2C1` (stereo not shown) [Cpd 174]: 98% and 45.2 nM. For the compound `CN(C)c1ccc(C2CCCN2C(=O)C(Nc2ccccc2F)c2ccc(C(F)(F)F)cc2)cc1` (stereo not shown) [Cpd 178], the inhibition at 0.2 µM is 100% and half-maximal inhibition (IC50) was put at 10 nM. With `Cc1c(C(Cc2ccccc2F)C(=O)N2Cc3ccccc3C2)sc2ccccc12` (stereo not shown) [Cpd 179], the inhibition at 0.2 µM is 96% and half-maximal inhibition (IC50) required 38 nM. Consider `O=C(C(Nc1c(F)cccc1F)c1ccc(Br)cc1)N1CCC[C@H]1c1ccccc1F` (stereo partly shown) [Cpd 181], for which the inhibition at 0.2 µM was 96% and half-maximal inhibition (IC50) was put at 5 nM. Taken in the same sequence, the figures for `CCOC(=O)c1ccc(C(Nc2c(F)cccc2F)C(=O)N2CCC[C@H]2c2ccccc2F)cc1` (stereo partly drawn) [Cpd 183, 4-{1-(2,6-Difluoro-phenylamino)-2-[(2S)-2-(2-fluoro-phenyl)-pyrrolidin-1-yl]-2-oxo-ethyl}-benzoic acid ethyl ester] were 99% and 10 nM.

As for `O=C(C(Nc1ccccc1F)c1ccc(C(F)(F)F)cc1)N1CCCC1c1ccccc1Cl` (stereo not shown) [Cpd 188], the “% Inh @ 0.2 μM” value came out at 30%.

As for `O=C(N1CCCC1c1ccccc1)C1(c2ccc(C(F)(F)F)cc2)CCc2ccccc2N1` (stereo not shown) [Cpd 194, (2-Phenyl-pyrrolidin-1-yl)-[2-(4-trifluoromethyl-phenyl)-1,2,3,4-tetrahydro-quinolin-2-yl]-methanone], the inhibition at 0.2 µM turned out to be 70% and half-maximal inhibition (IC50) required 160 nM. On to `COC(=O)C1CCC(c2ccccc2)N1C(=O)C(Nc1ccccc1F)c1ccc(Br)cc1` (stereo not shown) [Cpd 195], for which the “% Inh @ 0.2 μM” value (0.2 µM) amounted to 32%. On to `COC(=O)C1CCC(c2ccccc2)N1C(=O)C(Nc1ccccc1F)c1ccc(Br)cc1` (stereo not shown) [Cpd 196], for which, where the note is “0.2 µM”, the “% Inh @ 0.2 μM” value was found to be 41%.

`O=C(C(Nc1ccccc1F)c1ccc(C(F)(F)F)cc1)N1CCCC1c1ccncc1` (stereo not shown) [Cpd 197]: the inhibition at 0.2 µM is 97% and the IC50 turned out to be 19 nM. For the compound `CC(C)(O)c1ccccc1OC(C(=O)N1CCCC1c1ccccc1F)c1ccc(C(F)(F)F)cc1` (stereo not shown) [Cpd 199, 1-[2-(2-Fluoro-phenyl)-pyrrolidin-1-yl]-2-[2-(1-hydroxy-1-methyl-ethyl)-phenoxy]-2-(4-trifluoromethyl-phenyl)-ethanone], the inhibition at 0.2 µM is 62%. With `O=C(C(Cc1ccccc1F)c1ccc(C(F)(F)F)cc1)N1Cc2ccccc2C1` (stereo not shown) [Cpd 200], the inhibition at 0.2 µM turned out to be 89% and the 50% inhibitory concentration (IC50) is 55 nM.

With `O=C(C(Cc1ccccc1F)c1ccc(C(F)(F)F)cc1)N1CCCC1c1ccccc1F` (stereo not shown) [Cpd 201, 3-(2-Fluoro-phenyl)-1-[2-(2-fluoro-phenyl)-pyrrolidin-1-yl]-2-(4-trifluoromethyl-phenyl)-propan-1-one], the inhibition at 0.2 µM stood at 99% and the IC50 is 32 nM. As for `O=C(C(Nc1ccccc1F)c1ccc(C(F)(F)F)cc1)N1CCCC1c1ccccn1` (stereo not shown) [Cpd 202], the inhibition at 0.2 µM stood at 100% and inhibition was half-maximal at 25 nM (IC50).

Consider `O=C(C(Nc1ccccc1F)c1ccc(C(F)(F)F)cc1)N1CCCC1c1cccnc1` (stereo not shown) [Cpd 203], for which the inhibition at 0.2 µM turned out to be 102% and the IC50 worked out at 7 nM. Consider `COC(=O)C1CCC(c2ccccc2)N1C(=O)C(Nc1ccccc1)c1ccc(Cl)cc1` (stereo not shown) [Cpd 207], for which the “% Inh @ 0.2 μM” value (0.2 µM) is 47%. Regarding `COC(=O)C1CCC(c2ccccc2)N1C(=O)C(Nc1c(F)cccc1F)c1ccc(Br)cc1` (stereo not shown) [Cpd 210], the inhibition at 0.2 µM turned out to be 99% and the half-inhibitory concentration (IC50) came to 7 nM. For `COC(=O)C1CCC(c2ccccc2)N1C(=O)C(Nc1c(F)cccc1F)c1ccc(Br)cc1` (stereo not shown) [Cpd 211], the “% Inh @ 0.2 μM” value (0.2 µM) was found to be 69%.

As to `COC(=O)C1CCC(c2ccccc2)N1C(=O)C(Nc1ccccc1)c1ccc(Cl)cc1` (stereo not shown) [Cpd 213], the “% Inh @ 0.2 μM” value (0.2 µM) is reported as 63%. In the case of `O=C(C(Nc1ccccc1)c1cccnc1)N1CCCC1c1ccccc1F` (stereo not shown) [Cpd 214, 1-[2-(2-Fluoro-phenyl)-pyrrolidin-1-yl]-2-phenylamino-2-pyridin-3-yl-ethanone], the inhibition at 0.2 µM amounted to 58%. Regarding `O=C(C(Nc1ccccc1)c1ccccn1)N1CCCC1c1ccccc1F` (stereo not shown) [Cpd 217], the “% Inh @ 0.2 μM” value (0.2 µM) is 26%. Consider `O=C(C(Nc1c(F)cccc1F)c1ccc(CO)cc1)N1CCC[C@H]1c1ccccc1F` (stereo partly drawn) [Cpd 219, 2-(2,6-Difluoro-phenylamino)-1-[(2S)-2-(2-fluoro-phenyl)-pyrrolidin-1-yl]-2-(4-hydroxymethyl-phenyl)-ethanone], for which the inhibition at 0.2 µM is 89% and half-maximal inhibition (IC50) required 68 nM. As for `COC(=O)c1ccc(C2CCCN2C(=O)C(Nc2ccccc2F)c2ccc(C(F)(F)F)cc2)cc1` (stereo not shown) [Cpd 220], the inhibition at 0.2 µM is 96% and the 50% inhibitory concentration (IC50) was determined as 48 nM. The matching figures for `O=C(O)c1ccc(C2CCCN2C(=O)C(Nc2ccccc2F)c2ccc(C(F)(F)F)cc2)cc1` (stereo not shown) [Cpd 222]: 93% and 66 nM.

In the case of `O=C(C(Nc1ccccc1F)c1cc2ccccc2s1)N1CCCC1c1ccccc1F` (stereo not shown) [Cpd 225, 2-Benzo[b]thiophen-2-yl-2-(2-fluoro-phenylamino)-1-[2-(2-fluoro-phenyl)-pyrrolidin-1-yl]-ethanone], the inhibition at 0.2 µM is 98% and the IC50 came to 7 nM. In the case of `O=C(C(Nc1ccccc1)c1cnc2ccccc2c1)N1CCCC1c1ccccc1F` (stereo not shown) [Cpd 226], the IC50 was 42.5 nM. `O=C(C(c1ccc(C(F)(F)F)cc1)N1CCc2ccccc21)N1CCCC1c1ccccc1` (stereo not shown) [Cpd 227] showed a half-maximal inhibitory concentration (IC50) of 30.6 nM. In turn, `O=C(C(c1ccc(C(F)(F)F)cc1)N1CCc2ccccc21)N1CCCC1c1ccccc1F` (stereo not shown) [Cpd 228] showed an IC50 of 25.4 nM. Compound `CN(c1ccccc1F)C(C(=O)N1Cc2ccccc2C1)c1ccc(C(F)(F)F)cc1` (stereo not shown) [Cpd 229] came in with an IC50 of 44.4 nM.

As for `O=C(C(c1ccc(C(F)(F)F)cc1)N1CCc2ccccc21)N1Cc2ccccc2C1` (stereo not shown) [Cpd 230], the IC50 was 105 nM. On to `CN(c1ccccc1F)C(C(=O)N1CCCC1c1ccccc1F)c1ccc(C(F)(F)F)cc1` (stereo not shown) [Cpd 233], for which the “% Inh @ 0.2 μM” value was 10%.

With `O=C(C(Cc1c(F)cccc1F)c1ccc(C(F)(F)F)cc1)N1CCCC1c1ccccc1F` (stereo not shown) [Cpd 244, 3-(2,6-Difluoro-phenyl)-1-[2-(2-fluoro-phenyl)-pyrrolidin-1-yl]-2-(4-trifluoromethyl-phenyl)-propan-1-one], the inhibition at 0.2 µM amounted to 98% and the concentration for half-maximal inhibition (IC50) is 16.7 nM. For `O=C(C(Nc1ccccc1F)c1ccc2ncccc2c1)N1CCCC1c1ccccc1F` (stereo not shown) [Cpd 248], the inhibition at 0.2 µM turned out to be 94% and the 50% inhibitory concentration (IC50) came to 12.3 nM. Taken in the same sequence, the figures for `O=C(C(Cc1cccc(F)c1F)c1ccc(C(F)(F)F)cc1)N1CCCC1c1ccccc1F` (stereo not shown) [Cpd 253] were 89% and 65.8 nM.
